Measured values from patent US20200120909A1, “COMPOSITIONS AND METHODS FOR THE STUDY AND TREATMENT OF ACUTE KIDNEY INJURY” (THE JOHNS HOPKINS UNIVERSITY, priority 2014, published 2020).

Columns and labels:
[1] = test system: Nrf2; test: Ex-vivo Nrf2 activation of purified mouse T cells, real-time PCR of Nrf2 target genes; type: cell-based
Experimental: (§1) FIG. 11. […] RNA isolated from these cells was analyzed by quantitative real-time PCR for expression of Nrf2 target genes, NQO1, HO-1 and GCLM. […] Furthermore, we treated peripheral blood mononuclear cells (PBMCs) from healthy individuals and treated them with CDDO-Me (Bardoxolone), an Nrf2 activator related to triterpenopid derivative CDDO-Im.
Antioxidant Gene Expression Analyses. Total RNA ([…]) from purified T cells was isolated with the RNeasy mini kit (Qiagen, Valencia, Calif.) and reverse transcribed using a high capacity cDNA synthesis kit (Life Technologies). A gene-specific TaqMan primer and probe sets were used to assess transcriptional status of Nrf2, Nqo1, Ho-1, Gclm, and Gclc in Quantstudio 12K flex real-time PCR (Life Technologies). The absolute expression values for each gene were normalized to that of b-actin and the relative gene expression values calculated.

[2] = test system: Nrf2; test: Nrf2 target gene expression in treated human peripheral blood mononuclear cells; type: cell-based
Experimental: as §1

[3] = test system: acute kidney injury; conditions: pharmacological activation of Nrf2 regulated antioxidant response; cited from earlier work
[4] = test system: T cells; conditions: cited from earlier work; for TNF-a and IFN-g production: after CD3/CD28 activation; for T helper phenotype skewing: pharmacologic activation of Nrf2
[5] = purified T cells from wild type mice, 20 nM and 50 nM, 24 hours

CC1(C)CC[C@]2(C(=O)n3ccnc3)CC[C@]3(C)[C@H](C(=O)C=C4[C@@]5(C)C=C(C#N)C(=O)C(C)(C)[C@@H]5CC[C@]43C)[C@@H]2C1 [CDDO-Im]
HO-1 mRNA expression [1, 5]: significant increase
NQO1 mRNA expression [1, 5]: significant increase
activating Nrf2 regulated antioxidant gene expression ([1]; purified mouse T cells, 20 and 50 μM): significantly effective
activating Nrf2 regulated antioxidant gene expression ([2]; human PBMCs, 20 and 50 μM): significantly effective
protection from acute kidney injury [3]: can protect from acute kidney injury

COC(=O)[C@]12CCC(C)(C)C[C@H]1[C@H]1C(=O)C=C3[C@@]4(C)C=C(C#N)C(=O)C(C)(C)[C@@H]4CC[C@@]3(C)[C@]1(C)CC2 [CDDO-Me, bardoxolone methyl]
gene expression of GCLM ([2]; PBMCs from healthy individuals, p=0.01): significant increase
gene expression of NQO1 ([2]; PBMCs from healthy individuals, p=0.02): significant increase
gene expression of HO-1 ([2]; PBMCs from healthy individuals, p=0.05): significant increase

COc1ccc(O)c(C(C)(C)C)c1 [butylated hydroxyanisole]
TNF-a and IFN-g production [4]: suppress
T helper phenotype skewing [4]: skew T cells toward a Th2 type phenotype

CC(C)(C)c1cc(O)ccc1O [tertbutylhydroquinone, tert-butylhydroquinone]
TNF-a and IFN-g production [4]: suppress
T helper phenotype skewing [4]: skew T cells toward a Th2 type phenotype
